Patent US12103920B2, “Cereblon binding compounds, compositions thereof, and methods of treatment therewith” (Celgene Corporation, priority 2020, dated 2024)
Where a name gives a salt, the structure may show the parent alone.

Target: T1, AR protein in VCaP cells (Homo sapiens, UniProt P10275)
T1 construct: endogenous in cells; host or cells: VCaP cells
T1 sequence (P10275 1-920): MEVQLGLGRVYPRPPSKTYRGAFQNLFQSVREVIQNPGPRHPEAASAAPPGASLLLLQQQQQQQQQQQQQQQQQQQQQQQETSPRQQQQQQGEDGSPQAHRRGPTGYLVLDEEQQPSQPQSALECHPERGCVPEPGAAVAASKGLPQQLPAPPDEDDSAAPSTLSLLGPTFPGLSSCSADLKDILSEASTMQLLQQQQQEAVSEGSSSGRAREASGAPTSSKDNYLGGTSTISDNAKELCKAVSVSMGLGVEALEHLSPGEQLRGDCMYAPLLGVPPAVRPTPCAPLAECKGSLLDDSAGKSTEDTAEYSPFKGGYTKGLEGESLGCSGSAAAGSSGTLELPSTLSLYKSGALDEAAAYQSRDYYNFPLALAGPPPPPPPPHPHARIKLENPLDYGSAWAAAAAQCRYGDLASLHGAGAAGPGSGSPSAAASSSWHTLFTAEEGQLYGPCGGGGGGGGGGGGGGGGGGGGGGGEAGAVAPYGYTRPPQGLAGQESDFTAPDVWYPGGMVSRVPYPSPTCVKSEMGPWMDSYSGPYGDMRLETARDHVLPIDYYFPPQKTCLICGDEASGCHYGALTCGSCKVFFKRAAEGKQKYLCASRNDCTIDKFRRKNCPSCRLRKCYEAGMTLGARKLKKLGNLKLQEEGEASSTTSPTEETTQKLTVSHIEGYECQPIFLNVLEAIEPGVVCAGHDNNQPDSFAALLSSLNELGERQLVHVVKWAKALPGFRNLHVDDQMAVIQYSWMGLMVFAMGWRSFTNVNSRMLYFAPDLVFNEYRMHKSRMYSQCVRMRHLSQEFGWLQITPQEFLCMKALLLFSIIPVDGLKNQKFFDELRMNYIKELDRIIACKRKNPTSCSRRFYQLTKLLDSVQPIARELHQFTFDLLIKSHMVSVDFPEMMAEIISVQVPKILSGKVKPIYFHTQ
Assay: VCAP AR Degradation Assay
Assay type: cell-based
Conditions: 24 h, AR ELISA; for DC50: concentration at 50% of DMSO control (50% AR degradation); for Y: lowest measured AR level normalized to DMSO control
Description: VCAP AR Degradation Assay. Test compounds were pre-dispensed into a Corning CellBind 96-well clear bottom plate (Cat #3300) using an acoustic dispenser to make a 10-point concentration series at 1:3 dilution for each compound. The final top concentration of each compound was 5 μM. DMSO at a final concentration of 0.1% was used as a control. VCaP cells cultured in DMEM with 8% fetal bovine serum (FBS) were seeded at 50K cells per well in a 200 μL volume into the compound plate and incubated at 37° C. in a CO2 incubator for 24 h. The medium was carefully removed from the cells and the plate was placed on ice. One hundred μL of ice-cold 1× cell lysis buffer from Cell Signaling Technologies (Cat #9803) was added to each well of the cells and the plate was incubated at 4° C. on a shaker for 1 h. Fifteen μL of cell lysate was used for AR ELISA detection using a PathScan Total Sandwich AR ELISA kit (Cell Signaling Technology, Cat #12580). AR levels in compound-treated wells were normalized to that of DMSO control and expressed as percent of control (PoC) (y). A Four Parameter Logistic Model (Sigmoidal Dose-Response Model) was used to determine the compound's DC50, and EC50, using the following equation: y=(A+((B−A)/(1+((C/x)^D)))) • A=YMin (lowest AR level normalized to DMSO control in response to compound treatment, as determined by curve fit) • B=YMax (maximum AR level as determined by curve fit) • C=EC50 • D=Hill Slope • x=compound concentration • EC50=the concentration of compound when y=(YMax−YMin)/2 • DC50=the concentration of the compound when y=50% of DMSO control (50% AR degradation) • y=AR protein level normalized to DMSO control
The lowest measured AR level normalized to DMSO control in response to compound treatment, termed Y value, was used to characterize the compound-mediated AR degradation efficiency.

Compound | DC50 | Y
C[C@@H]1CN(CCO[C@H]2CC[C@H](N3C(=S)N(c4ccc(C#N)c(C(F)(F)F)c4)C(=O)C3(C)C)CC2)C[C@H](C)N1CC(=O)Nc1cccc(NC2CCC(=O)NC2=O)c1 (stereo partly drawn) [Cmpd 1, 2-((2R,6S)-4-(2-((trans-4-(3-(4-Cyano-3-(trifluoromethyl)phenyl)-5,5-dimethyl-4-oxo-2-thioxoimidazolidin-1-yl)cyclohexyl)oxy)ethyl)-2,6-dimethylpiperazin-1-yl)-N-(3-((2,6-dioxopiperidin-3-yl)amino)phenyl)acetamide] | 5 to 10 nM | *** (25%<Y<50%)
C[C@@H]1CN(CCC[C@H]2CC[C@H](N3C(=S)N(c4ccc(C#N)c(C(F)(F)F)c4)C(=O)C3(C)C)CC2)C[C@H](C)N1CC(=O)Nc1cccc(NC2CCC(=O)NC2=O)c1 (stereo partly drawn) [Cmpd 2, 2-((2R,6S)-4-(3-(trans-4-(3-(4-Cyano-3-(trifluoromethyl)phenyl)-5,5-dimethyl-4-oxo-2-thioxoimidazolidin-1-yl)cyclohexyl)propyl)-2,6-dimethylpiperazin-1-yl)-N-(3-((2,6-dioxopiperidin-3-yl)amino)phenyl)acetamide] | 10 to 100 nM | * (0<Y≤15%)
C[C@@H]1CN(CCO[C@H]2CC[C@H](N3C(=S)N(c4ccc(C#N)c(C(F)(F)F)c4)C(=O)C3(C)C)CC2)C[C@H](C)N1CC(=O)Nc1cccc(N[C@@H]2CCC(=O)NC2=O)c1 [Cmpd 3, 2-((2R,6S)-4-(2-((trans-4-(3-(4-Cyano-3-(trifluoromethyl)phenyl)-5,5-dimethyl-4-oxo-2-thioxoimidazolidin-1-yl)cyclohexyl)oxy)ethyl)-2,6-dimethylpiperazin-1-yl)-N-(3-(((R)-2,6-dioxopiperidin-3-yl)amino)phenyl)acetamide hydrochloride] | 5 to 10 nM | *** (25%<Y<50%)
C[C@@H]1CN(CCO[C@H]2CC[C@H](N3C(=S)N(c4ccc(C#N)c(Cl)c4)C(=O)C3(C)C)CC2)C[C@H](C)N1CC(=O)Nc1cccc(NC2CCC(=O)NC2=O)c1 (stereo partly drawn) [Cmpd 4, 2-((2R,6S)-4-(2-((trans-4-(3-(3-Chloro-4-cyanophenyl)-5,5-dimethyl-4-oxo-2-thioxoimidazolidin-1-yl)cyclohexyl)oxy)ethyl)-2,6-dimethylpiperazin-1-yl)-N-(3-((2,6-dioxopiperidin-3-yl)amino)phenyl)acetamide hydrochloride] | ≤ 5 nM | ** (15%<Y≤20%)
C[C@@H]1CN(CCO[C@H]2CC[C@H](N3C(=S)N(c4cnc(C#N)c(C(F)(F)F)c4)C(=O)C3(C)C)CC2)C[C@H](C)N1CC(=O)Nc1cccc(NC2CCC(=O)NC2=O)c1 (stereo partly drawn) [Cmpd 5, 2-((2R,6S)-4-(2-((trans-4-(3-(6-Cyano-5-(trifluoromethyl)pyridin-3-yl)-5,5-dimethyl-4-oxo-2-thioxoimidazolidin-1-yl)cyclohexyl)oxy)ethyl)-2,6-dimethylpiperazin-1-yl)-N-(3-((2,6-dioxopiperidin-3-yl)amino)phenyl)acetamide hydrochloride] | ≤ 5 nM | *** (25%<Y<50%)
C[C@@H]1CN(CCC[C@H]2CC[C@H](N3C(=S)N(c4ccc(C#N)c(C(F)(F)F)c4)C(=O)C3(C)C)CC2)C[C@H](C)N1CC(=O)Nc1cccc(N[C@@H]2CCC(=O)NC2=O)c1 [Cmpd 6, 2-((2R,6S)-4-(3-(trans-4-(3-(4-Cyano-3-(trifluoromethyl)phenyl)-5,5-dimethyl-4-oxo-2-thioxoimidazolidin-1-yl)cyclohexyl)propyl)-2,6-dimethylpiperazin-1-yl)-N-(3-(((R)-2,6-dioxopiperidin-3-yl)amino)phenyl)acetamide hydrochloride] | 5 to 10 nM | * (0<Y≤15%)
C[C@@H]1CN(CCO[C@H]2CC[C@H](N3C(=S)N(c4ccc(C#N)c(S(F)(F)(F)(F)F)c4)C(=O)C3(C)C)CC2)C[C@H](C)N1CC(=O)Nc1cccc(NC2CCC(=O)NC2=O)c1 (stereo partly drawn) [Cmpd 7, 2-((2R,6S)-4-(2-((trans-4-(3-(4-Cyano-3-(pentafluoro-λ^6-sulfaneyl)phenyl)-5,5-dimethyl-4-oxo-2-thioxoimidazolidin-1-yl)cyclohexyl)oxy)ethyl)-2,6-dimethylpiperazin-1-yl)-N-(3-((2,6-dioxopiperidin-3-yl)amino)phenyl)acetamide hydrochloride] | 10 to 100 nM | *** (25%<Y<50%)
C[C@@H]1CN(CCO[C@H]2CC[C@H](N3C(=S)N(c4cnc(C#N)c(Cl)c4)C(=O)C3(C)C)CC2)C[C@H](C)N1CC(=O)Nc1cccc(NC2CCC(=O)NC2=O)c1 (some centres unmarked) [Cmpd 8, hydrochloride] | 5 to 10 nM | *** (25%<Y<50%)
C[C@@H]1CN(CCCO[C@H]2CC[C@H](N3C(=S)N(c4ccc(C#N)c(Cl)c4)C(=O)C3(C)C)CC2)C[C@H](C)N1CC(=O)Nc1cccc(NC2CCC(=O)NC2=O)c1 (stereo partly drawn) [Cmpd 9, 2-((2R,6S)-4-(3-((trans-4-(3-(3-Chloro-4-cyanophenyl)-5,5-dimethyl-4-oxo-2-thioxoimidazolidin-1-yl)cyclohexyl)oxy)propyl)-2,6-dimethylpiperazin-1-yl)-N-(3-((2,6-dioxopiperidin-3-yl)amino)phenyl)acetamide hydrochloride] | ≤ 5 nM | *** (25%<Y<50%)
C[C@@H]1CN(CCCO[C@H]2CC[C@H](N3C(=S)N(c4cnc(C#N)c(C(F)(F)F)c4)C(=O)C3(C)C)CC2)C[C@H](C)N1CC(=O)Nc1cccc(NC2CCC(=O)NC2=O)c1 (stereo partly drawn) [Cmpd 10, 2-((2R,6S)-4-(3-((trans-4-(3-(6-Cyano-5-(trifluoromethyl)pyridin-3-yl)-5,5-dimethyl-4-oxo-2-thioxoimidazolidin-1-yl)cyclohexyl)oxy)propyl)-2,6-dimethylpiperazin-1-yl)-N-(3-((2,6-dioxopiperidin-3-yl)amino)phenyl)acetamide hydrochloride] | ≤ 5 nM | ** (15%<Y≤20%)
C[C@@H]1CN(CCC[C@H]2CC[C@H](N3C(=S)N(c4cnc(C#N)c(C(F)(F)F)c4)C(=O)C3(C)C)CC2)C[C@H](C)N1CC(=O)Nc1cccc(NC2CCC(=O)NC2=O)c1 (stereo partly drawn) [Cmpd 11, 2-((2R,6S)-4-(3-(trans-4-(3-(6-Cyano-5-(trifluoromethyl)pyridin-3-yl)-5,5-dimethyl-4-oxo-2-thioxoimidazolidin-1-yl)cyclohexyl)propyl)-2,6-dimethylpiperazin-1-yl)-N-(3-((2,6-dioxopiperidin-3-yl)amino)phenyl)acetamide hydrochloride] | ≤ 5 nM | * (0<Y≤15%)
C[C@@H]1CN(CCCO[C@H]2CC[C@H](N3C(=S)N(c4ccc(C#N)c(C(F)(F)F)c4)C(=O)C3(C)C)CC2)C[C@H](C)N1CC(=O)Nc1cccc(NC2CCC(=O)NC2=O)c1 (stereo partly drawn) [Cmpd 12, 2-((2R,6S)-4-(3-((trans-4-(3-(4-Cyano-3-(trifluoromethyl)phenyl)-5,5-dimethyl-4-oxo-2-thioxoimidazolidin-1-yl)cyclohexyl)oxy)propyl)-2,6-dimethylpiperazin-1-yl)-N-(3-((2,6-dioxopiperidin-3-yl)amino)phenyl)acetamide hydrochloride] | 5 to 10 nM | *** (25%<Y<50%)
C[C@@H]1CN(CCC[C@H]2CC[C@H](N3C(=S)N(c4cnc(C#N)c(Cl)c4)C(=O)C3(C)C)CC2)C[C@H](C)N1CC(=O)Nc1cccc(NC2CCC(=O)NC2=O)c1 (stereo partly drawn) [Cmpd 13, 2-((2R,6S)-4-(3-(trans-4-(3-(5-Chloro-6-cyanopyridin-3-yl)-5,5-dimethyl-4-oxo-2-thioxoimidazolidin-1-yl)cyclohexyl)propyl)-2,6-dimethylpiperazin-1-yl)-N-(3-((2,6-dioxopiperidin-3-yl)amino)phenyl)acetamide hydrochloride] | 5 to 10 nM | *** (25%<Y<50%)
